Results reported in BindingDB's records for PubMed 32739648 (n/a, 2020).
pIC50: −log10 of the molar value.

Biological target: Epidermal growth factor receptor (Homo sapiens, UniProt P00533)
Test: Inhibition of human EGFR incubated for 1 hrs in presence of ATP by ELISA assay

Chain of Epidermal growth factor receptor (P00533 whole entry): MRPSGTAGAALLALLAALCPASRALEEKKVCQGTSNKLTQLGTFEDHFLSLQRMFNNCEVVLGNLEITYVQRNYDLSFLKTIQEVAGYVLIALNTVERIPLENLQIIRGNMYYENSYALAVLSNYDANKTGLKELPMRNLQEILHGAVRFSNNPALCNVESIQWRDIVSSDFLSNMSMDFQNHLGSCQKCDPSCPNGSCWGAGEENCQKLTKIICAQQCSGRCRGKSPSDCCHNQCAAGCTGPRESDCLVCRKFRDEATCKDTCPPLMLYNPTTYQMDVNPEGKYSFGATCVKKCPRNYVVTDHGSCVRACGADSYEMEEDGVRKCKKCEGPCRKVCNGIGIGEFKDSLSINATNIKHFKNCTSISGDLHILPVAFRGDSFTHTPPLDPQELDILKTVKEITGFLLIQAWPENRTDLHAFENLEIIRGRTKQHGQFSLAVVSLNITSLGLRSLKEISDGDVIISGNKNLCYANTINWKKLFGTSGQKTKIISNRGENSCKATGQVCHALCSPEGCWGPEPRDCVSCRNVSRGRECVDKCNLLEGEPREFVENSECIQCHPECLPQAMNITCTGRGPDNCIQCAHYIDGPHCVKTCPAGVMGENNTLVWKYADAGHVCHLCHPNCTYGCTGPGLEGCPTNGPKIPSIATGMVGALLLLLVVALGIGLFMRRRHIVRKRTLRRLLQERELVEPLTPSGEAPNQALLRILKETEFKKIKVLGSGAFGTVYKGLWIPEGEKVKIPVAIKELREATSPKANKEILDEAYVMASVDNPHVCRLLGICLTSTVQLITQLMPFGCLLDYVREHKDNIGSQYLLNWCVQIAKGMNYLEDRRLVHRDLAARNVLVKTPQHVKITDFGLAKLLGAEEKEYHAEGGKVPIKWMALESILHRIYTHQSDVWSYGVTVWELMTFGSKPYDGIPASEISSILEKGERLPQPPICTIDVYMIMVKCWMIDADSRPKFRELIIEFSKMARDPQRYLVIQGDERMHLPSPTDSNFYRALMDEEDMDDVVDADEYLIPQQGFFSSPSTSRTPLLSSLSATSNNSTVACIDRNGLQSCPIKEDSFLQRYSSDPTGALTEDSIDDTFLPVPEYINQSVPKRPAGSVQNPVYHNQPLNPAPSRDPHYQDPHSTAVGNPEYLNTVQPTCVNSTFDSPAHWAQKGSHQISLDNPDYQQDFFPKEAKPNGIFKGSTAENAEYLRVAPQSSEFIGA

## CSCC[C@@H](NC(=O)[C@@H](NC(=O)[C@@H](NC(=O)CC(=O)N(O)C/C=C(\C)CC/C=C(\C)CCC=C(C)C)C(C)C)C(C)C)C(=O)O
  pIC50: 7.66
